Source: the NIST ThermoML archive (doi:10.1016/j.jct.2005.11.012)

Legend:
[1] = 101 kPa, Liquid
[2] = refractive index (Na D-line) (dimensionless); settings: 101.33 kPa, Liquid
[3] = xn = mol fraction of the nth substance listed; settings: 101 kPa, Liquid
[4] = refractive index (Na D-line) (dimensionless); xn = mol fraction of the nth substance listed; settings: 101 kPa, Liquid

BrC(Br)C(Br)Br [1,1,2,2-tetrabromoethane]
Settings | mass density, [1] [kg/m3] | refractive index, [2]
293.15 K | 2963.2 | 1.63535
303.15 K | 2939.86 | 1.62926

BrC(Br)C(Br)Br [1,1,2,2-tetrabromoethane] + CCCCCCCCCCO
Settings | mass density, [3] [kg/m3] | refractive index, [4]
293.15 K, x1 = 0.1023 | 968.19 | 1.44929
293.15 K, x1 = 0.202 | 1114.37 | 1.46226
293.15 K, x1 = 0.3012 | 1272.36 | 1.47639
293.15 K, x1 = 0.4012 | 1446.62 | 1.49207
293.15 K, x1 = 0.5007 | 1636.66 | 1.50944
293.15 K, x1 = 0.6006 | 1847.04 | 1.52888
293.15 K, x1 = 0.7011 | 2081.74 | 1.55057
293.15 K, x1 = 0.8006 | 2340.68 | 1.57518
293.15 K, x1 = 0.9006 | 2632.79 | 1.60321
293.15 K, x1 = 1 | 2963.2 | 1.63535
303.15 K, x1 = 0.1023 | 960.09 | 1.44494
303.15 K, x1 = 0.202 | 1104.97 | 1.45758
303.15 K, x1 = 0.3012 | 1261.57 | 1.47147
303.15 K, x1 = 0.4012 | 1434.34 | 1.48697
303.15 K, x1 = 0.5007 | 1622.78 | 1.50399
303.15 K, x1 = 0.6006 | 1831.45 | 1.52315
303.15 K, x1 = 0.7011 | 2064.32 | 1.54493
303.15 K, x1 = 0.8006 | 2321.36 | 1.56925
303.15 K, x1 = 0.9006 | 2611.47 | 1.59716
303.15 K, x1 = 1 | 2939.86 | 1.62926

BrC(Br)C(Br)Br [1,1,2,2-tetrabromoethane] + CCCCCCCCO
Settings | mass density, [3] [kg/m3] | refractive index, [4]
293.15 K, x1 = 0.101 | 989.26 | 1.44433
293.15 K, x1 = 0.2013 | 1161.15 | 1.45995
293.15 K, x1 = 0.2997 | 1338.99 | 1.47641
293.15 K, x1 = 0.3994 | 1529.17 | 1.49411
293.15 K, x1 = 0.5002 | 1732.98 | 1.51358
293.15 K, x1 = 0.6003 | 1947.95 | 1.53421
293.15 K, x1 = 0.6998 | 2175.4 | 1.55634
293.15 K, x1 = 0.7998 | 2419.28 | 1.58047
293.15 K, x1 = 0.9011 | 2684.42 | 1.60696
293.15 K, x1 = 1 | 2963.2 | 1.63535
303.15 K, x1 = 0.101 | 980.93 | 1.44015
303.15 K, x1 = 0.2013 | 1151.32 | 1.45566
303.15 K, x1 = 0.2997 | 1327.63 | 1.4717
303.15 K, x1 = 0.3994 | 1516.19 | 1.48929
303.15 K, x1 = 0.5002 | 1718.29 | 1.50826
303.15 K, x1 = 0.6003 | 1931.52 | 1.52869
303.15 K, x1 = 0.6998 | 2157.22 | 1.55075
303.15 K, x1 = 0.7998 | 2399.36 | 1.57464
303.15 K, x1 = 0.9011 | 2662.77 | 1.60101
303.15 K, x1 = 1 | 2939.86 | 1.62926

BrC(Br)C(Br)Br [1,1,2,2-tetrabromoethane] + CCCCCCCO
Settings | mass density, [3] [kg/m3] | refractive index, [4]
293.15 K, x1 = 0.099 | 1001.11 | 1.44056
293.15 K, x1 = 0.1999 | 1189.38 | 1.45821
293.15 K, x1 = 0.3001 | 1383.2 | 1.47658
293.15 K, x1 = 0.3995 | 1582.25 | 1.49566
293.15 K, x1 = 0.5006 | 1792.24 | 1.51595
293.15 K, x1 = 0.5987 | 2003.6 | 1.5368
293.15 K, x1 = 0.6993 | 2229.07 | 1.55935
293.15 K, x1 = 0.799 | 2461.79 | 1.58311
293.15 K, x1 = 0.8992 | 2706 | 1.60832
293.15 K, x1 = 1 | 2963.2 | 1.63535
303.15 K, x1 = 0.099 | 992.57 | 1.43619
303.15 K, x1 = 0.1999 | 1179.18 | 1.45352
303.15 K, x1 = 0.3001 | 1371.29 | 1.47156
303.15 K, x1 = 0.3995 | 1568.62 | 1.49038
303.15 K, x1 = 0.5006 | 1776.88 | 1.51053
303.15 K, x1 = 0.5987 | 1986.59 | 1.53124
303.15 K, x1 = 0.6993 | 2210.42 | 1.55368
303.15 K, x1 = 0.799 | 2441.56 | 1.57727
303.15 K, x1 = 0.8992 | 2684.21 | 1.60236
303.15 K, x1 = 1 | 2939.86 | 1.62926

BrC(Br)C(Br)Br [1,1,2,2-tetrabromoethane] + CCCCCCO
Settings | mass density, [3] [kg/m3] | refractive index, [4]
293.15 K, x1 = 0.1001 | 1021.6 | 1.43743
293.15 K, x1 = 0.2007 | 1227.75 | 1.45713
293.15 K, x1 = 0.3004 | 1434.26 | 1.4771
293.15 K, x1 = 0.4004 | 1643.89 | 1.49787
293.15 K, x1 = 0.5005 | 1856.54 | 1.51914
293.15 K, x1 = 0.6008 | 2072.22 | 1.54101
293.15 K, x1 = 0.6999 | 2288.24 | 1.56327
293.15 K, x1 = 0.8012 | 2512.37 | 1.58693
293.15 K, x1 = 0.9001 | 2734.51 | 1.61052
293.15 K, x1 = 1 | 2963.2 | 1.63535
303.15 K, x1 = 0.1001 | 1012.63 | 1.43304
303.15 K, x1 = 0.2007 | 1216.94 | 1.45244
303.15 K, x1 = 0.3004 | 1421.62 | 1.47214
303.15 K, x1 = 0.4004 | 1629.48 | 1.49244
303.15 K, x1 = 0.5005 | 1840.42 | 1.51355
303.15 K, x1 = 0.6008 | 2054.51 | 1.53523
303.15 K, x1 = 0.6999 | 2269.06 | 1.55749
303.15 K, x1 = 0.8012 | 2491.76 | 1.58095
303.15 K, x1 = 0.9001 | 2712.53 | 1.60452
303.15 K, x1 = 1 | 2939.86 | 1.62926

BrC(Br)C(Br)Br [1,1,2,2-tetrabromoethane] + CCCCCO
Settings | mass density, [3] [kg/m3] | refractive index, [4]
293.15 K, x1 = 0.1009 | 1048.36 | 1.43257
293.15 K, x1 = 0.2014 | 1276.63 | 1.45508
293.15 K, x1 = 0.3004 | 1497.47 | 1.47732
293.15 K, x1 = 0.4003 | 1716.5 | 1.49977
293.15 K, x1 = 0.5014 | 1934.64 | 1.52252
293.15 K, x1 = 0.6001 | 2144.16 | 1.54476
293.15 K, x1 = 0.7001 | 2353.22 | 1.56734
293.15 K, x1 = 0.7998 | 2558.61 | 1.58989
293.15 K, x1 = 0.8997 | 2761.73 | 1.61255
293.15 K, x1 = 1 | 2963.2 | 1.63535
303.15 K, x1 = 0.1009 | 1038.85 | 1.42823
303.15 K, x1 = 0.2014 | 1265.1 | 1.45052
303.15 K, x1 = 0.3004 | 1484.08 | 1.47247
303.15 K, x1 = 0.4003 | 1701.36 | 1.49475
303.15 K, x1 = 0.5014 | 1917.88 | 1.51723
303.15 K, x1 = 0.6001 | 2125.93 | 1.53938
303.15 K, x1 = 0.7001 | 2333.58 | 1.5616
303.15 K, x1 = 0.7998 | 2537.64 | 1.58403
303.15 K, x1 = 0.8997 | 2739.49 | 1.60652
303.15 K, x1 = 1 | 2939.86 | 1.62926

CCCCCCCCCCO [decan-1-ol]
Settings | mass density, [1] [kg/m3] | refractive index, [2]
293.15 K | 829.7 | 1.43706
303.15 K | 822.85 | 1.43302

CCCCCCCCCCO [decan-1-ol] + BrC(Br)C(Br)Br
x2 = 0
Settings | mass density, [3] [kg/m3] | refractive index, [4]
293.15 K | 829.7 | 1.43706
303.15 K | 822.85 | 1.43302

CCCCCCCO [heptan-1-ol]
Settings | mass density, [1] [kg/m3] | refractive index, [2]
293.15 K | 822.39 | 1.42397
303.15 K | 815.41 | 1.42002

CCCCCCCO [heptan-1-ol] + BrC(Br)C(Br)Br
x2 = 0
Settings | mass density, [3] [kg/m3] | refractive index, [4]
293.15 K | 822.39 | 1.42397
303.15 K | 815.41 | 1.42002

CCCCCCO [hexan-1-ol]
Settings | mass density, [1] [kg/m3] | refractive index, [2]
293.15 K | 818.92 | 1.41826
303.15 K | 811.73 | 1.41423

CCCCCCO [hexan-1-ol] + BrC(Br)C(Br)Br
x2 = 0
Settings | mass density, [3] [kg/m3] | refractive index, [4]
293.15 K | 818.92 | 1.41826
303.15 K | 811.73 | 1.41423

CCCCCCCCO [octan-1-ol]
Settings | mass density, [1] [kg/m3] | refractive index, [2]
293.15 K | 824.99 | 1.42958
303.15 K | 818.09 | 1.42562

CCCCCCCCO [octan-1-ol] + BrC(Br)C(Br)Br
x2 = 0
Settings | mass density, [3] [kg/m3] | refractive index, [4]
293.15 K | 824.99 | 1.42958
303.15 K | 818.09 | 1.42562

CCCCCO [pentan-1-ol]
Settings | mass density, [1] [kg/m3] | refractive index, [2]
293.15 K | 815.03 | 1.40995
303.15 K | 807.6 | 1.40592

CCCCCO [pentan-1-ol] + BrC(Br)C(Br)Br
x2 = 0
Settings | mass density, [3] [kg/m3] | refractive index, [4]
293.15 K | 815.03 | 1.40995
303.15 K | 807.6 | 1.40592
